Patent US9346815B2, “5-chloro-2-difluoromethoxyphenyl pyrazolopyrimidine compounds, compositions and methods of use thereof” (Genentech, Inc., priority 2014, dated 2016)

What was measured:
[1] = target: isolated recombinant JAK1 kinase domain (Homo sapiens (Human), UniProt P23458); experiment: JAK1 enzyme assay (Caliper LabChip, peptide phosphorylation); type: biochemical; conditions: isolated recombinant JAK1 kinase domain, 25 μM ATP
[2] = tested on: JAK1-dependent STAT6 phosphorylation downstream of IL-13 stimulation in BEAS-2B human bronchial epithelial cells; experiment: JAK1 pathway assay in BEAS-2B cells (IL-13-pSTAT6, MSD); type: cell-based; conditions: read-out: IL13-pSTAT6 EC50 (uM)_BEAS-2B
Procedure, shortened: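 BEAS-2B: 1 h, complete growth medium, 100,000 cells/well. TF-1: 30 min, serum-free OptiMEM after overnight GM-CSF starvation, 300,000 cells/well. EC50 reported.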

[3] = target: isolated recombinant JAK2 kinase domain (Homo sapiens (Human), UniProt O60674); experiment: JAK2 enzyme assay (Caliper LabChip, peptide phosphorylation); type: biochemical; conditions: 25 μM ATP
Sequence of isolated recombinant JAK2 kinase domain (O60674 849-1124): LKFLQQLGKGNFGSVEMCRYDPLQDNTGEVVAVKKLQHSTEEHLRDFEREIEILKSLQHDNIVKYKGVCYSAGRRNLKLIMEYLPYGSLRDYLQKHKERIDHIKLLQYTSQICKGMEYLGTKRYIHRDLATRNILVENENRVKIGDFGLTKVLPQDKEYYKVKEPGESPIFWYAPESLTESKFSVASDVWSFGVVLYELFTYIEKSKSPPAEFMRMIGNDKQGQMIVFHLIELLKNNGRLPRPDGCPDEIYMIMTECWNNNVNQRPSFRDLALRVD

Sequence of isolated recombinant JAK1 kinase domain (P23458 875-1153): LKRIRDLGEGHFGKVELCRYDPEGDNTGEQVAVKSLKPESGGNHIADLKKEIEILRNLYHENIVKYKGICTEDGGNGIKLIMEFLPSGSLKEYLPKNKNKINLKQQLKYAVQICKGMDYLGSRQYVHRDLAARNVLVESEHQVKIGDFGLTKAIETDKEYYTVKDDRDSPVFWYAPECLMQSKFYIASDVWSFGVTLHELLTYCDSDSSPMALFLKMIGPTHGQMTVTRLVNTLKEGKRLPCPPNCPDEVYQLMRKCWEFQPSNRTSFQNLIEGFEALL

| SMILES | Ki [1] | EC50 [2] | Ki [3] |
| --- | --- | --- | --- |
| O=C(Nc1cn(CC(=O)N2CC3CCCNC3C2)nc1-c1cc(Cl)ccc1OC(F)F)c1cnn2cccnc12 (stereo not drawn) [Example 439, N-(3-(5-chloro-2-(difluoromethoxy)phenyl)-1-(2-(octahydropyrrolo[3,4-b]pyridin-6-yl)-2-oxoethyl)-1H-pyrazol-4-yl)pyrazolo[1,5-a]pyrimidine-3-carboxamide] | 0.71 nM | 0.0353 µM | 0.78 nM |
| O=C(Nc1cn(CC(=O)N2CCC(C(=O)N3CCNCC3)CC2)nc1-c1cc(Cl)ccc1OC(F)F)c1cnn2cccnc12 [Example 408, N-(3-(5-chloro-2-(difluoromethoxy)phenyl)-1-(2-oxo-2-(4-(piperazine-1-carbonyl)piperidin-1-yl)ethyl)-1H-pyrazol-4-yl)pyrazolo[1,5-a]pyrimidine-3-carboxamide] | 0.59 nM | 0.121 µM | 2.29 nM |
| O=C(Nc1cn(CCN[C@@H]2CCOC2)nc1-c1cc(Cl)ccc1OC(F)F)c1cnn2cccnc12 [Example 402, N-(3-(5-chloro-2-(difluoromethoxy)phenyl)-1-(2-((R)-tetrahydrofuran-3-ylamino)ethyl)-1H-pyrazol-4-yl)pyrazolo[1,5-a]pyrimidine-3-carboxamide] | 0.83 nM | 0.0187 µM | 0.4 nM |
| CSCCNCCn1cc(NC(=O)c2cnn3cccnc23)c(-c2cc(Cl)ccc2OC(F)F)n1 [Example 312, N-[3-[5-chloro-2-(difluoromethoxy)phenyl]-1-(2-[[2-(methylsulfanyl)ethyl]amino]ethyl)-1H-pyrazol-4-yl]pyrazolo[1,5-a]pyrimidine-3-carboxamide] | 0.4 nM | 0.0719 µM | 0.32 nM |
| O=C1CCC(CNCCn2cc(NC(=O)c3cnn4cccnc34)c(-c3cc(Cl)ccc3OC(F)F)n2)O1 (stereo not drawn) [Example 381, N-[3-[5-chloro-2-(difluoromethoxy)phenyl]-1-(2-[[(5-oxooxolan-2-yl)methyl]amino]ethyl)-1H-pyrazol-4-yl]pyrazolo[1,5-a]pyrimidine-3-carboxamide] | 1.07 nM | 0.0298 µM | 0.55 nM |
| C[C@@H]1COCCN1C1CCN(C(=O)Cn2cc(NC(=O)c3cnn4cccnc34)c(-c3cc(Cl)ccc3OC(F)F)n2)CC1 [Example 449, N-(3-(5-chloro-2-(difluoromethoxy)phenyl)-1-(2-(4-((R)-3-methyl-morpholino)piperidin-1-yl)-2-oxoethyl)-1H-pyrazol-4-yl)pyrazolo[1,5-a]pyrimidine-3-carboxamide] | 0.38 nM | 0.0136 µM | 1.1 nM |
| N#CCCCN1CCN(C(=O)Cn2cc(NC(=O)c3cnn4cccnc34)c(-c3cc(Cl)ccc3OC(F)F)n2)CC1 [Example 461, N-(3-(5-chloro-2-(difluoromethoxy)phenyl)-1-(2-(4-(3-cyanopropyl)piperazin-1-yl)-2-oxoethyl)-1H-pyrazol-4-yl)pyrazolo[1,5-a]pyrimidine-3-carboxamide] | 0.4 nM | 0.0117 µM | 0.84 nM |
| N#CCCNC1CCC(=CCn2cc(NC(=O)c3cnn4cccnc34)c(-c3cc(Cl)ccc3OC(F)F)n2)CC1 (stereo not drawn) [Example 421, N-(3-(5-chloro-2-(difluoromethoxy)phenyl)-1-(2-(4-(2-cyanoethylamino)cyclohexylidene)ethyl)-1H-pyrazol-4-yl)pyrazolo[1,5-a]pyrimidine-3-carboxamide] | 0.65 nM | 0.0498 µM | 0.89 nM |
| O=C1CCC(CN2CCN(C(=O)Cn3cc(NC(=O)c4cnn5cccnc45)c(-c4cc(Cl)ccc4OC(F)F)n3)CC2)O1 (stereo not drawn) [Example 382, N-[3-[5-chloro-2-(difluoromethoxy)phenyl]-1-(2-oxo-2-[4-[(5-oxooxolan-2-yl)methyl]piperazin-1-yl]ethyl)-1H-pyrazol-4-yl]pyrazolo[1,5-a]pyrimidine-3-carboxamide] | 0.34 nM | 0.0257 µM | 0.75 nM |
| COC(=O)C1CCN(CCN2CCN(C(=O)Cn3cc(NC(=O)c4cnn5cccnc45)c(-c4cc(Cl)ccc4OC(F)F)n3)CC2)CC1 [Example 333, methyl1-[2-[4-(2-[3-[5-chloro-2-(difluoromethoxy)phenyl]-4-[pyrazolo[1,5-a]pyrimidine-3-amido]-1H-pyrazol-1-yl]acetyl)piperazin-1-yl]ethyl]piperidine-4-carboxylate] | 0.69 nM | 0.0065 µM | 1.96 nM |
| CN(CC1=CC(=O)OC1)C1CCN(C(=O)Cn2cc(NC(=O)c3cnn4cccnc34)c(-c3cc(Cl)ccc3OC(F)F)n2)CC1 [Example 352, N-[3-[5-chloro-2-(difluoromethoxy)phenyl]-1-[2-(4-[methyl[(5-oxo-2,5-dihydrofuran-3-yl)methyl]amino]piperidin-1-yl)-2-oxoethyl]-1H-pyrazol-4-yl]pyrazolo[1,5-a]pyrimidine-3-carboxamide] | 0.33 nM | 0.0124 µM | 0.75 nM |
| CN(CC1CCC(=O)O1)C1CCN(C(=O)Cn2cc(NC(=O)c3cnn4cccnc34)c(-c3cc(Cl)ccc3OC(F)F)n2)CC1 (stereo not drawn) [Example 344, N-[3-[5-chloro-2-(difluoromethoxy)phenyl]-1-[2-(4-[methyl[(5-oxooxolan-2-yl)methyl]amino]piperidin-1-yl)-2-oxoethyl]-1H-pyrazol-4-yl]pyrazolo[1,5-a]pyrimidine-3-carboxamide] | 0.7 nM | 0.0484 µM | 1.9 nM |
| O=C(Nc1cn(CCNCc2cccc(O)c2)nc1-c1cc(Cl)ccc1OC(F)F)c1cnn2cccnc12 [Example 327, N-[3-[5-chloro-2-(difluoromethoxy)phenyl]-1-(2-[[(3-hydroxyphenyl)methyl]amino]ethyl)-1H-pyrazol-4-yl]pyrazolo[1,5-a]pyrimidine-3-carboxamide] | 0.25 nM | 0.0077 µM | 0.2 nM |
| C[C@@H](Cn1cc(NC(=O)c2cnn3cccnc23)c(-c2cc(Cl)ccc2OC(F)F)n1)N(C)C [Example 370, N-[3-[5-chloro-2-(difluoromethoxy)phenyl]-1-[(2S)-2-(dimethylamino)propyl]-1H-pyrazol-4-yl]pyrazolo[1,5-a]pyrimidine-3-carboxamide] | 1.37 nM | 0.0402 µM | 1.37 nM |
| CC1(CN2CCN(C(=O)Cn3cc(NC(=O)c4cnn5cccnc45)c(-c4cc(Cl)ccc4OC(F)F)n3)CC2)COC1 [Example 318, N-[3-[5-chloro-2-(difluoromethoxy)phenyl]-1-(2-[4-[(3-methyloxetan-3-yl)methyl]piperazin-1-yl]-2-oxoethyl)-1H-pyrazol-4-yl]pyrazolo[1,5-a]pyrimidine-3-carboxamide] | 0.56 nM | 0.0283 µM | 1.11 nM |
| N#Cc1ccc(CN2CCN(C(=O)Cn3cc(NC(=O)c4cnn5cccnc45)c(-c4cc(Cl)ccc4OC(F)F)n3)CC2)cc1 [Example 238, N-[3-[5-chloro-2-(difluoromethoxy)phenyl]-1-[2-[4-[(4-cyanophenyl)methyl]piperazin-1-yl]-2-oxo-ethyl]pyrazol-4-yl]pyrazolo[1,5-a]pyrimidine-3-carboxamide] | 0.45 nM | 0.0218 µM | 0.55 nM |
| CC(C#N)CNC1CCN(C(=O)Cn2cc(NC(=O)c3cnn4cccnc34)c(-c3cc(Cl)ccc3OC(F)F)n2)CC1 (stereo not drawn) [Example 419, N-(3-(5-chloro-2-(difluoromethoxy)phenyl)-1-(2-(4-(2-cyanopropyl-amino)piperidin-1-yl)-2-oxoethyl)-1H-pyrazol-4-yl)pyrazolo[1,5-a]pyrimidine-3-carboxamide] | 0.41 nM | 0.0313 µM | 1.06 nM |
